Test results from patent US20240109917A1 (ACTELION PHARMACEUTICALS LTD, priority 2020, published 2024).

Target: His6-TEV-PDGFRβ (557-1016) (Homo sapiens (Human), UniProt P09619)
Assay: PDGFRβ HTRF Assay
Format: biochemical
Conditions: read-out: PDGFR HTRF IC50
Procedure, shortened: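 HTRF KinEASE-TK readout (665/620 nm ratio) of TK-biotin substrate phosphorylation by His-tagged PDGFRβ kinase domain. Enzyme and inhibitor preincubated 30 min, then ATP/substrate added for 3 h at room temperature before 60 min EDTA quench/detection.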

Sequence of His6-TEV-PDGFRβ (557-1016) (P09619 557-1016): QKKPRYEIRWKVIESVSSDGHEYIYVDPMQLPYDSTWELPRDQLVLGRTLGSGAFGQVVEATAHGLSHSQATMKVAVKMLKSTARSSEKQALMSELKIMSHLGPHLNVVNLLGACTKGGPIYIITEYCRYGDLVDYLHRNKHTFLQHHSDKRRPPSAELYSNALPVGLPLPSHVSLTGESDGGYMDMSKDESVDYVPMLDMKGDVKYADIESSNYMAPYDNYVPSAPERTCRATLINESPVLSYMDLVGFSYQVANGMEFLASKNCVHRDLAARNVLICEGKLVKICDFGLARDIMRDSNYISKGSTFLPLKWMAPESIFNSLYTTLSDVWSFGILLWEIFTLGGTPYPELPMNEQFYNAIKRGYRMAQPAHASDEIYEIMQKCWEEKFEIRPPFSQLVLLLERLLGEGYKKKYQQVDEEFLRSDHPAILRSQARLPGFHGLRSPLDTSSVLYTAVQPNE

Row | SMILES | IC50
1 | Cc1ncc(NC(=O)CN2CCCC2(C)C)cc1NC(=O)c1cnn2cc(-c3cccn(CCF)c3=O)sc12 [Example 449, N-(5-(2-(2,2-dimethylpyrrolidin-1-yl)acetamido)-2-methylpyridin-3-yl)-2-(1-(2-fluoroethyl)-2-oxo-1,2-dihydropyridin-3-yl)pyrazolo[5,1-b]thiazole-7-carboxamide] | 0.7 nM
2 | Cc1ncc(NC(=O)CC2CN(C)C2)cc1NC(=O)c1cnn2cc(-c3cnn4c3CCC4)sc12 [Example 427, 2-(5,6-dihydro-4H-pyrrolo[1,2-b]pyrazol-3-yl)-N-(2-methyl-5-(2-(1-methylazetidin-3-yl)acetamido)pyridin-3-yl)pyrazolo[5,1-b]thiazole-7-carboxamide] | 2.1 nM
3 | Cc1ncc(NC(=O)NCCN2CCCC2(C)C)cc1NC(=O)c1cnn2cc(-c3cnn(C)c3)sc12 [Example 38, N-(5-(3-(2-(2,2-dimethylpyrrolidin-1-yl)ethyl)ureido)-2-methyl-pyridin-3-yl)-2-(1-methyl-1H-pyrazol-4-yl)pyrazolo[5,1-b]thiazole-7-carboxamide] | 1.8 nM
4 | Cc1ncc(NC(=O)CN2CCC[C@@H]2C)cc1NC(=O)c1cnn2cc(-c3cnn4c3CCC4)sc12 [Example 416, (S)-2-(5,6-dihydro-4H-pyrrolo[1,2-b]pyrazol-3-yl)-N-(2-methyl-5-(2-(2-methylpyrrolidin-1-yl)acetamido)pyridin-3-yl)pyrazolo[5,1-b]thiazole-7-carboxamide] | 0.2 nM
5 | COCCn1cc(-c2cn3ncc(C(=O)Nc4cc(NC(=O)CN5CCC5C(C)C)cnc4C)c3s2)cn1 (stereo not drawn) [Example 467, N-(5-(2-(2-isopropylazetidin-1-yl)acetamido)-2-methylpyridin-3-yl)-2-(1-(2-methoxyethyl)-1H-pyrazol-4-yl)pyrazolo[5,1-b]thiazole-7-carboxamide] | 0.4 nM
6 | Cc1ncc(NC(=O)CN2CCC3(CC3)C2)cc1NC(=O)c1cnn2cc(-c3cnn4c3COCC4)sc12 [Example 474, N-(5-(2-(5-azaspiro[2.4]heptan-5-yl)acetamido)-2-methylpyridin-3-yl)-2-(6,7-dihydro-4H-pyrazolo[5,1-c][1,4]oxazin-3-yl)pyrazolo[5,1-b]thiazole-7-carboxamide] | 0.2 nM
7 | Cc1ncc(NC(=O)CN2CCC[C@@H]2C)cc1NC(=O)c1cnn2cc(-c3cnn4c3COCC4)sc12 [Example 473, (S)-2-(6,7-dihydro-4H-pyrazolo[5,1-c][1,4]oxazin-3-yl)-N-(2-methyl-5-(2-(2-methylpyrrolidin-1-yl)acetamido)pyridin-3-yl)pyrazolo[5,1-b]thiazole-7-carboxamide] | 0.4 nM
8 | Cc1ncc(NC(=O)CN2CC(C)(C)C2)cc1NC(=O)c1cnn2cc(-c3cnn4c3OCCC4)sc12 [Example 39, 2-(6,7-dihydro-5H-pyrazolo[5,1-b][1,3]oxazin-3-yl)-N-(5-(2-(3,3-dimethylazetidin-1-yl)acetamido)-2-methylpyridin-3-yl)pyrazolo[5,1-b]thiazole-7-carboxamide] | 0.3 nM
9 | Cc1ncc(C(=O)NCCN2CC(C)(C)C2)cc1NC(=O)c1cnn2cc(-c3cnn4c3OCCC4)sc12 [Example 479, 2-(6,7-dihydro-5H-pyrazolo[5,1-b][1,3]oxazin-3-yl)-N-(5-((2-(3,3-dimethylazetidin-1-yl)ethyl)carbamoyl)-2-methylpyridin-3-yl)pyrazolo[5,1-b]thiazole-7-carboxamide] | 0.3 nM
10 | Cc1ncc(NC(=O)CN2CC(C)(C)C2)cc1NC(=O)c1cnn2cc(-c3cnn4c3COCC4)sc12 [Example 476, 2-(6,7-dihydro-4H-pyrazolo[5,1-c][1,4]oxazin-3-yl)-N-(5-(2-(3,3-dimethylazetidin-1-yl)acetamido)-2-methylpyridin-3-yl)pyrazolo[5,1-b]thiazole-7-carboxamide] | 0.2 nM
11 | Cc1ncc(NC(=O)CN2CC(C)(C)C2)cc1NC(=O)c1cnn2cc(-c3nn(C)nc3C)sc12 [Example 445, 2-(2,5-Dimethyl-2H-1,2,3-triazol-4-yl)-N-(5-(2-(3,3-dimethylazetidin-1-yl)acetamido)-2-methylpyridin-3-yl)pyrazolo[5,1-b]thiazole-7-carboxamide] | 0.3 nM
12 | Cc1ncc(C(=O)NCCN2CC3CCC2CC3)cc1NC(=O)c1cnn2cc(-c3cnn4c3OCCC4)sc12 [Example 477, N-(5-((2-(2-azabicyclo[2.2.2]octan-2-yl)ethyl)carbamoyl)-2-methylpyridin-3-yl)-2-(6,7-dihydro-5H-pyrazolo[5,1-b][1,3]oxazin-3-yl)pyrazolo[5,1-b]thiazole-7-carboxamide] | 0.3 nM
13 | Cc1ncc(NC(=O)CNCC2CC2)cc1NC(=O)c1cnn2cc(-c3cnn4c3OCCC4)sc12 [Example 453, N-(5-(2-((cyclopropylmethyl)amino)acetamido)-2-methylpyridin-3-yl)-2-(6,7-dihydro-5H-pyrazolo[5,1-b][1,3]oxazin-3-yl)pyrazolo[5,1-b]thiazole-7-carboxamide] | 0.6 nM
14 | COCCn1cc(-c2cn3ncc(C(=O)Nc4cc(NC(=O)C[C@@H]5CCN(C(C)C)C5)cnc4C)c3s2)cn1 [Example 466, (S)—N-(5-(2-(1-isopropylpyrrolidin-3-yl)acetamido)-2-methylpyridin-3-yl)-2-(1-(2-methoxyethyl)-1H-pyrazol-4-yl)pyrazolo[5,1-b]thiazole-7-carboxamide] | 9 nM
15 | COC1CN(CC(=O)Nc2cnc(C)c(NC(=O)c3cnn4cc(-c5cn(C)nc5C)sc34)c2)C1 [Example 441, 2-(1,3-Dimethyl-1H-pyrazol-4-yl)-N-(5-(2-(3-methoxyazetidin-1-yl)acetamido)-2-methylpyridin-3-yl)pyrazolo[5,1-b]thiazole-7-carboxamide] | 0.7 nM
16 | Cc1ncc(NC(=O)C[C@@H]2CCN(C(C)C)C2)cc1NC(=O)c1cnn2cc(-c3cnn(C)c3)sc12 [Example 464, (S)—N-(5-(2-(1-isopropylpyrrolidin-3-yl)acetamido)-2-methylpyridin-3-yl)-2-(1-methyl-1H-pyrazol-4-yl)pyrazolo[5,1-b]thiazole-7-carboxamide] | 5.2 nM
17 | Cc1ncc(C(=O)NCCN2CCCC23CCC3)cc1NC(=O)c1cnn2cc(-c3cnn4c3COCC4)sc12 [Example 472, N-(5-((2-(5-azaspiro[3.4]octan-5-yl)ethyl)carbamoyl)-2-methylpyridin-3-yl)-2-(6,7-dihydro-4H-pyrazolo[5,1-c][1,4]oxazin-3-yl)pyrazolo[5,1-b]thiazole-7-carboxamide] | 0.4 nM
18 | Cc1ncc(NC(=O)CN2CCCC[C@@H]2C)cc1NC(=O)c1cnn2cc(-c3cnn(CCO)c3)sc12 [Example 34, (S)-2-(1-(2-hydroxyethyl)-1H-pyrazol-4-yl)-N-(2-methyl-5-(2-(2-methyl-piperidin-1-yl)acetamido)pyridin-3-yl)pyrazolo[5,1-b]thiazole-7-carboxamide] | 1.7 nM
19 | Cc1ncc(NC(=O)CN2CC(C)(C)C2)cc1NC(=O)c1cnn2cc(-c3cnc4n3CCOC4)sc12 [Example 415, 2-(5,6-dihydro-8H-imidazo[2,1-c][1,4]oxazin-3-yl)-N-(5-(2-(3,3-dimethylazetidin-1-yl)acetamido)-2-methylpyridin-3-yl)pyrazolo[5,1-b]thiazole-7-carboxamide] | 0.5 nM
20 | Cc1cc(C(=O)NCCN2CCCC2(C)C)sc1NC(=O)c1cnn2cc(-c3cccnc3)sc12 [Example 36, N-(5-((2-(2,2-dimethylpyrrolidin-1-yl)ethyl)carbamoyl)-3-methylthiophen-2-yl)-2-(pyridin-3-yl)pyrazolo[5,1-b]thiazole-7-carboxamide] | 0.5 nM
21 | Cc1ncc(NC(=O)CN2CCC2)cc1NC(=O)c1cnn2cc(-c3cnn4c3OCCC4)sc12 [Example 412, N-(5-(2-(azetidin-1-yl)acetamido)-2-methylpyridin-3-yl)-2-(6,7-dihydro-5H-pyrazolo[5,1-b][1,3]oxazin-3-yl)pyrazolo[5,1-b]thiazole-7-carboxamide] | 1.4 nM
22 | Cc1ncc(NC(=O)CN2CCC[C@@H]2C)cc1NC(=O)c1cnn2cc(-c3cnn4c3OCCC4)sc12 [Example 413, (S)-2-(6,7-dihydro-5H-pyrazolo[5,1-b][1,3]oxazin-3-yl)-N-(2-methyl-5-(2-(2-methylpyrrolidin-1-yl)acetamido)pyridin-3-yl)pyrazolo[5,1-b]thiazole-7-carboxamide] | 0.3 nM
23 | COC1(C)CN(CC(=O)Nc2cnc(C)c(NC(=O)c3cnn4cc(-c5cn(C)nc5C)sc34)c2)C1 [Example 442, 2-(1,3-Dimethyl-1H-pyrazol-4-yl)-N-(5-(2-(3-methoxy-3-methylazetidin-1-yl)acetamido)-2-methylpyridin-3-yl)pyrazolo[5,1-b]thiazole-7-carboxamide] | 0.3 nM
24 | Cc1ncc(NC(=O)CC2CNC2)cc1NC(=O)c1cnn2cc(-c3cnn4c3CCC4)sc12 [Example 426, N-(5-(2-(azetidin-3-yl)acetamido)-2-methylpyridin-3-yl)-2-(5,6-dihydro-4H-pyrrolo[1,2-b]pyrazol-3-yl)pyrazolo[5,1-b]thiazole-7-carboxamide] | 11.5 nM
25 | Cc1ncc(NC(=O)CN2CC(C)(C)C2)cc1NC(=O)c1cnn2cc(-c3cncnc3)sc12 [Example 429, N-(5-(2-(3,3-dimethylazetidin-1-yl)acetamido)-2-methylpyridin-3-yl)-2-(pyrimidin-5-yl)pyrazolo[5,1-b]thiazole-7-carboxamide] | 6.3 nM
26 | Cc1ncc(NC(=O)CN2CC(C)(C)C2)cc1NC(=O)c1cnn2cc(-c3cccnc3OC(F)(F)F)sc12 [Example 437, N-(5-(2-(3,3-dimethylazetidin-1-yl)acetamido)-2-methylpyridin-3-yl)-2-(2-(trifluoromethoxy)pyridin-3-yl)pyrazolo[5,1-b]thiazole-7-carboxamide] | 0.4 nM
27 | Cc1ncc(NC(=O)CNCC(C)C)cc1NC(=O)c1cnn2cc(-c3cnn4c3OCCC4)sc12 [Example 414, 2-(6,7-dihydro-5H-pyrazolo[5,1-b][1,3]oxazin-3-yl)-N-(5-(2-(isobutylamino)acetamido)-2-methylpyridin-3-yl)pyrazolo[5,1-b]thiazole-7-carboxamide] | 0.4 nM
